In patent publication US20150031535A1, “Liquid concentrate formulation containing a pyripyropene insecticide III” (BASF SE, priority 2012, published 2015):

Experiments:
[1] = Precipitation from a solution of Insecticide A in Solvent A on continued agitation at room temperature (Example 1, comparative); assay type: physicochemical
Method: A solution of Insecticide A (pyripyropene derivative I) in Solvent A was prepared by slowly adding 4.98 parts by weight of Insecticide A to well agitated 63.92 parts by weight of Solvent A at room temperature. It typically took 1 to 3 hours for complete dissolution depending on the addition rate of Insecticide A and on the mode of agitation. After the agitation had been continued for additional approximately 12 hours the clear solution started to turn cloudy, indicating the precipitation of Solvent A solvate crystals of Insecticide A. Microscopy analysis confirmed that the precipitation was indeed crystalline.

[2] = Solvate crystal growth in seeded solutions of Insecticide A in 2-heptanone/Solvent A mixtures (Example 2); assay type: physicochemical; settings: seeded with Solvent A solvate crystals, 22° C., one month
Method: Four solutions of 2-heptanone in Solvent A were prepared by mixing 1 part by weight of 2-heptanone with 2, 4, 6 and 8 parts by weight, respectively, of solvent A. Then Insecticide A was dissolved in each of these solutions by slowly adding 4.98 parts by weight of Insecticide A to well agitated 63.92 parts by weight of the respective solution at room temperature. It typically took 1 to 3 hours for complete dissolution. After Insecticide A was fully dissolved, each of the four samples was seeded with the Solvent A solvate crystals of Insecticide A prepared in Example 1. Then the four samples were kept at 22° C. for one month and afterwards were visually inspected for solvate crystal growth.

Q: Which results are given for `C[C@]1(COC(=O)C2CC2)[C@@H]2C[C@H](O)[C@@]3(C)Oc4cc(-c5cccnc5)oc(=O)c4[C@H](O)[C@@H]3[C@@]2(C)CC[C@@H]1OC(=O)C1CC1` [Insecticide A]?
A: microscopy analysis of the precipitation ([1]; 4.98 parts Insecticide A in 63.92 parts Solvent A): crystalline; additional agitation time after which the clear solution started to turn cloudy (precipitation of Solvent A solvate crystals) ([1]; 4.98 parts by weight Insecticide A in 63.92 parts by weight Solvent A, after complete dissolution): approximately 12 hours; solvate crystal growth (visual inspection) ([2]; 2-heptanone to Solvent A ratio 1:2): no crystal growth was observed; solvate crystal growth (visual inspection) ([2]; 2-heptanone to Solvent A ratio 1:4): no crystal growth was observed; solvate crystal growth (visual inspection) ([2]; 2-heptanone to Solvent A ratio 1:6): crystal growth was detected; solvate crystal growth (visual inspection) ([2]; 2-heptanone to Solvent A ratio 1:8): crystal growth was detected
